Test results as given in patent US20060166934A1, “Composition comprising phytosphingosine derivatives for apoptosis induction” (Tae-Yoon Kim, priority 2002, published 2006).
Where two headings read alike, the source gives them in different places.

Legend:
[1] = MTT assay, cytotoxicity in human keratinocyte cell line; assay type: cell-based; conditions: human, Cell viability
Method: (§1) Firstly, the cytotoxicity is measured by the MTT assay. Phytosphingosine (PS), phytosphingosine-HCl (PS-HCl), C6-phytosphingosine (C6-PS), CLA-phytosphingosine (CLA-PS), tetraacetyl phytosphingosine (TAPS), and N-acetyl phytosphingosine (NAPS) are dissolved into DMSO to have the final concentration of 1-100 μM.
(§2) In order to study the effects of the compositions of the present invention on the cytotoxicity in the human keratinocyte cell line HaCaT cells, the cell viability is analyzed by the MTT (3-[4,5-dimethylthiazol-2-yl]-2,5-diphenyltetrazolium bromide) assay. HaCaT cells are supplied by Professor N. Fuseng of German Cancer Research in Germany. HaCaT cells are seeded in a density of 1×10^6 cells in a […] and cultured in DMEM (Dulbecco's Modified Eagle Medium) containing 10% fetal bovine serum (FBS, GIBCO), 100 units/ml penicillin, and 100 μg/ml streptomycin for 48 hours. They are treated with trypsin and 1-2×10^4 cells per well are seeded again in a 96-well plate by using a serum-free culture medium, about 3 hours after which they are cultured by treatment with phytosphingosine derivatives. After they are cultured for 24 hours, the MTT reagent is added at a concentration of 2 mg/ml, cultured for 4 hours, suspended in DMSO after removing the culture medium completely in order to measure O.D. at 540 nm. C2-ceramide is used for comparison.

[2] = MTT assay, cytotoxicity in human skin cancer cell line; assay type: cell-based; conditions: human, Cell viability
Method: as §1, §2
(§3) In order to study the effects of the compositions of the present invention on the cytotoxicity in A431 cells, human skin cancer cell line, the MTT assay is used. The method of cell culture and MTT assay are the same as those in the above method. C2-ceramide is used for comparison.

[3] = test system: A431 cells, human skin cancer cell line; assay: as above; assay type: cell-based; conditions: human, 24 h
Method: as §1, §2, §3

[4] = MTT assay, cytotoxicity in HUVEC; assay type: cell-based, human; conditions: human
Method: as §1, §2
(§4) The MTT assay is used for the above purpose. Primary human umbilical vein endothelial cells are cultured from the human umbilical vein. The method of cell culture and the MTT assay are the same as those in the above. C2-ceramide is used for comparison.

[5] = test system: human umbilical vein endothelial cells (HUVEC); assay: MTT assay, cytotoxicity in HUVEC; assay type: cell-based; conditions: human, 24 h, 30 μM
Method: as §1, §2, §4

[6] = MTT assay, cytotoxicity in immune cells separated from spleen of mice; assay type: cell-based; conditions: BDF, mouse
Method: The effect of the composition of the present invention on the cytotoxicity in immune cells (T cells, B cells, macrophages, monocytes, etc.) was examined. The spleen was removed from normal mice (BDF) and single cells were obtained from the spleen by mechanical aggregation method. And mononuclear cells containing T cells, B cells, macrophages and monocytes were isolated from single cells by density gradient centrifugation method using Ficoll Hypaque. Briefly, single cells were treated with PBS and overlayed on Ficoll Hypaque and centrifuged at 1500 rpm for 30 min. After centrifugation, the cells around the boundary of the Ficoll-Hapaque were collected and washed three times with PBS. The isolated cells were cultured for 24 hours in the presence of 1, 10, 50 and 100 μM of NAPS, TAPS, and PS to examine the effect of cytotoxicity, i.e. the degree of proliferation of the cells. C2-ceramide was used as control. The medium used in this experiment was RPMI 1640 suplemented with 10% of FBS and 100 μg/ml of penicillin and streptomycin.

[7] = test system: Th1 cells activation; assay: Mixed leukocyte reaction (MLR), Th1 cells activation by TNBSO3, MTT assay; assay type: cell-based, mice; conditions: MLR with TNBSO3-conjugated stimulator cells, FIG. 4
Method: Whether the composition of the present invention has a suppressive effect on the Th1 cells activation which isolate […], IL-12, etc. by reacting with TNBSO3 […] was examined.
The mononuclear cells obtained from spleen of mice as described the above 4 were used for responder cells, and TNBSO3-conjugated cells were used for stimulator cells. The stimulator cells were obtained as follows:
The mononuclear cells were adjusted to be 2×10^7 cells/ml in PBS and the same volume of 20 mM TNBSO3 was added and incubated at 37° C. for 10 min in the dark state. After incubation, the cells wrer washed three times with PBS.
(§5) Each 2×10^5 responder cells and stimulator cells were mixed with each other and cultured for 5 days on the 96-well plate. And RPMI with 10% of serum was used as a medium.
(§6) The above cells were cultured for 24 hours in the presence of 1, 10, 50 and 100 μM of NAPS, TAPS, and PS to examine the proliferation of the cells.
(§7) C2-ceramide was used as control.

[8] = test system: Th1 cells activation against allogenic cells (PBMC); assay: Reactions among allogenic cells, Th1 cells activation, MTT assay; assay type: cell-based, human; conditions: FIG. 5
Description: Whether the composition of the present invention has a suppressive effect on the Th1 cells activation by allogenic cells in immune reation was examined.
PBMC obtained from different volunteers as described in the above 5 were used for responder cells and stimulator cells respectively. PBMC for stimulator cells were used after X-ray irradiation (3000 rad) to inhibit the proliferation of stimulator cells.
as §5, §6, §7

[9] = MTT assay, combined treatment with UVB irradiation; assay type: cell-based, human; design: Cell viability: unit not given here; conditions: human, HaCaT cells, HaCaT, read-out: Cell viability
Method: (§8) In order to study the synergistic effect in the cytotoxicity by the cotreatment with administration of the compositions of the present invention and with UVB irradiation, the cell viability is analyzed by MTT assay method in HaCaT cells. On a 100-mm dish, 1×10^6 HaCaT cells are seeded and cultured in DMEM containing 10% fetal bovine serum, 100 units/ml penicillin, and 100 μg/ml streptomycin for 48 hours. They are treated with trypsin, and 1-2×10^4 cells per well are seeded on a 96-well plate again by using a serum-free medium, which is removed after about 3 hours. HaCaT cells are washed with PBS three times, and 3.5 ml of PBS per plate is added. It is then irradiated with 200 J/m^2 of UVB. After irradiation, the medium is replaced with a DMEM medium. Then it is treated with the phytosphingosine derivatives of the present invention, and cultured for 24 hours. After 2 mg/ml of the MTT reagent is added, it is cultured for 4 hours. The medium is removed completely, the cells are suspended in DMSO, and O.D. is measured at 540 nm.

[10] = test system: HaCaT cells; assay: MTT assay, combined treatment with UVB irradiation; assay type: cell-based, human; design: Cell viability: unit not given here; conditions: 1 μM, no UVB, 24 hours, HaCaT
Method: as §8

[11] = MTT assay, combined administration with Vit D3 or calcipotriol; assay type: cell-based, human; conditions: human, HaCaT cells, 1 μM singly, 24 hours, HaCaT; read-out: Cell viability
Method: (§9) In order to study the synergistic effect in the cytotoxicity when the compositions of the present invention are administered in combination with Vit D3 or calcipotriol, the cell viability is analyzed by MTT assay method in HaCaT cells human keratinocyte cell line.
(§10) To HaCaT cells, 1 μM of Vit D3 or calcipotriol, or 10 μM each of NAPS and TAPS, is administered singly or in combination with each other, and they are cultured for 24 hours. And the effects of these drugs on the cytotoxicity according to the single or combined administration are observed by MTT assay. C2-ceramide is used for comparison.

[12] = test system: HaCaT cells human keratinocyte cell line; assay: as above; assay type: cell-based; conditions: 1 μM singly, 24 hours
Method: as §9, §10

CCCCCCCCCCCCCC[C@@H](O)[C@@H](O)[C@@H](N)CO [PS, phytosphingosine]
viability at 24 h, 1 µM [1]: 97 ± 11.1% | viability at 24 h, 3 µM [1]: 93 ± 3% | viability at 24 h, 10 µM [1]: 86 ± 10.1% | viability at 24 h, 30 µM [1]: 51 ± 9.6% | viability at 24 h, 3 µM [2]: 85 ± 10.7% | viability at 24 h, 50 µM [2]: 2 ± 0.2% | Cell viability ([3]; 10 µM): 30 ± 1.9 | cytotoxicity ([3]; 50 μM): 95-98% | viability at 24 h, 3.5 µM [4]: 64 ± 4.7% | viability at 24 h, 7 µM [4]: 19 ± 1.8% | viability at 24 h, 15 µM [4]: 14 ± 0.9% | viability at 24 h, 30 µM [4]: 13 ± 1% | cytotoxicity [5]: 86-91% | IC50 at 24 h [6]: ~75 µM | concentration showing a suppressive effect on Th1 cells activation [7]: 50 µM | suppressive effect on Th1 cells activation against allogenic cells ([8]; 50 μM): suppress completely | concentration showing a suppressive effect on Th1 cells activation against allogenic cells [8]: 50 μM | viability at 24 h, 1 µM ([9]; 1 μM + UVB 200 J/m^2, 24 hours): 38 ± 7.9% | viability at 24 h, 3 µM ([9]; 3 μM + UVB 200 J/m^2, 24 hours): 30 ± 3.3% | viability at 24 h, 3 µM ([9]; 3 μM, no UVB, 24 hours): 93 ± 5.5% | viability at 24 h, 5 µM ([9]; 5 μM + UVB 200 J/m^2, 24 hours): 28 ± 2.3% | viability at 24 h, 5 µM ([9]; 5 μM, no UVB, 24 hours): 85 ± 10.6% | viability at 24 h, 10 µM ([9]; 10 μM + UVB 200 J/m^2, 24 hours): 3 ± 0.9% | viability at 24 h, 10 µM ([9]; 10 μM, no UVB, 24 hours): 71 ± 7.6% | Cell viability [10]: 133 ± 3.4

C=C1/C(=C\C=C2/CCC[C@]3(C)[C@@H]([C@H](C)/C=C/[C@@H](O)C4CC4)CC[C@@H]23)C[C@@H](O)C[C@@H]1O [calcipotriol, reference compound]
viability at 24 h, 1 µM [11]: 77 ± 5% | toxicity [12]: 23%
